Patent US5220050A, “Peptide mimetic compounds useful as platelet aggregation inhibitors” (G. D. Searle & Co., priority 1991, dated 1993)
Counter-ions that a name gives are not always drawn.

Tests used:
[1] = system: Platelet Aggregation in Dog PRP; assay: In-Vitro Platelet Aggregation in PRP (ADP induced); assay type: cell-based; conditions: for IC50: Canis lupus familiaris, Platelet, in-vitro
Procedure: Healthy male or female dogs were fasted for 8 hours prior to drawing blood; then 30 ml whole blood was collected using a butterfly needle and 30 cc plastic syringe with 3 ml of 0.129 M buffered sodium citrate (3.8%). The syringe was rotated carefully as blood was drawn to mix the citrate. Platelet-rich plasma (PRP) was prepared by centrifugation at 975×g for 3.17 minutes at room temperature, allowing the centrifuge to coast to a stop without braking. The PRP was removed from the blood with a plastic pipette and placed in a plastic capped, 50 ml Corning conical sterile centrifuge tube which was held at room temperature. Platelet poor plasma (PPP) was prepared by centrifuging the remaining blood at 2000×g for 15 minutes at room temperature allowing the centrifuge to coast to a stop without braking. The PRP was adjusted with PPP to a count of 2-3×10^8 platelets per ml. 400 μl of the PRP preparation and 50 μl of the compound to be tested or saline were preincubated for 1 minute at 37° C. in a BioData aggregometer (BioData, Horsham, Pa.). 50 μl of adenosine 5'diphosphate (ADP) (50 μm final concentration) was added to the cuvettes and the aggregation was monitored for 1 minute. All compounds are tested in duplicate. Results are calculated as follows:
Percent of control=[(maximal OD minus initial OD of compound) divided by (maximal OD minus initial OD of control saline)]×100. The % inhibition=100-(percent of control).

[2] = system: collagen induced platelet aggregation; assay: Inhibition of ex vivo collagen induced aggregation after administration to dogs; assay type: in vivo, dogs (Beagles); conditions: dog, intragastric or intravenous; for inhibition in vivo at 10 mg/kg / inhibition in vivo at 30 mg/kg / inhibition in vivo at 20 mg/kg: Canis lupus familiaris, Platelet, read-out: Max % Inhibition
Procedure: The purpose of this assay is to determine the effects of antiplatelet compounds on ex vivo collagen induced platelet aggregation when administered either intravenously or orally to dogs.
Pretreatment (control) blood samples are drawn from either conscious or anesthetized dogs (Beagles) and centrifuged to prepare platelet rich plasma (PRP). Aggregatory response to collagen is measured in an aggregometer and used as Control.
In Table B the designation "NT" means "Not Tested". Also in Table B, two readings given in a single box indicate that two trials, rather than a single trial, were run for that particular compound in that particular assay.

Compound | IC50 [1] [µM] | inhibition in vivo at 10 mg/kg ([2]; dose 10 mg/Kg) [%] | inhibition in vivo at 30 mg/kg ([2]; dose 30 mg/Kg) [%] | further results
CC(CC(=O)O)NC(=O)CCCCc1ccc(C(=N)N)cc1 (stereo not drawn) [3-[[5-[4-(Aminoiminomethyl)phenyl]-1-oxopentyl]amino]butanoic acid] | 1.2 | 80 | – | Duration ([2]; dose 10 mg/Kg): 5 h
CCOC(=O)CC(C)NC(=O)CCCCc1ccc(C(=N)N)cc1 (stereo not drawn) [Ethyl 3-[[5-[4-(aminoiminomethyl)phenyl]-1-oxopentyl]amino]butanoate] | 5 | 90 | 100 | Duration ([2]; dose 30 mg/Kg): > 24 h
CCOC(=O)CC(NC(=O)CCCCc1ccc(C(=N)N)cc1)c1ccccc1 (stereo not drawn) [Ethyl β-[[5-[4-(aminoiminomethyl)phenyl]-1-oxopentyl]amino]benzenepropanoate] | 5.3 | 83 | 100 | Duration ([2]; dose 30 mg/Kg): > 24 h
N=C(N)c1ccc(CCCCC(=O)NC(CC(=O)OC2CCCCC2)c2cccnc2)cc1 (stereo not drawn) [cyclohexyl β-[[5-[4-(aminoiminomethyl)phenyl]-1-oxopentyl]amino]-3-pyridinepropanoate] | 2.3 | 87 | – | Duration ([2]; dose 10 mg/Kg): 3 h
C=CC(CC(=O)OCC)NC(=O)CCCCc1ccc(C(=N)N)cc1 (stereo not drawn) [ethyl 3-[[5-[4-(aminoiminomethyl)phenyl]-1-oxopentyl]amino]-4-pentenoate] | – | – | 100 | –
CCOC(=O)CC(CC(C)C)NC(=O)CCCCc1ccc(C(=N)N)cc1 (stereo not drawn) [ethyl 3-[[5-[4-(aminoiminomethyl)phenyl]-1-oxopentyl]amino]-5-methylhexanoate] | – | – | 100 | Duration ([2]; dose 30 mg/Kg): > 6 h
CCOC(=O)CC(NC(=O)CCCCc1ccc(C(=N)N)cc1)c1ccc2c(c1)OCO2 (stereo not drawn) [ethyl β-[[5-[4-(aminoiminomethyl)phenyl]-1-oxopentyl]amino]-1,3-benzodioxole-5-propanoate] | – | 100 | – | Duration ([2]; dose 10 mg/Kg): 5 h
CCOC(=O)CC(NC(=O)CCCCc1ccc(C(=N)N)cc1)c1cc(OC)cc(OC)c1 (stereo not drawn) [ethyl β-[[5-[4-(aminoiminomethyl)phenyl]-1-oxopentyl]amino]-3,5-dimethoxybenzenepropanoate] | – | – | – | inhibition in vivo at 20 mg/kg ([2]; dose 20 mg/Kg): 70%; Duration ([2]; dose 20 mg/Kg): 4 h
CCOC(=O)CC(NC(=O)CCCCc1ccc(C(=N)N)cc1)c1cccnc1 (stereo not drawn) [ethyl β-[[5-[4-(aminoiminomethyl)phenyl]-1-oxopentyl]amino]-3-pyridinepropanoate] | – | 100 | – | inhibition in vivo at 20 mg/kg ([2]; dose 20 mg/Kg): 100%; Duration ([2]; dose 20 mg/Kg): > 24 h
CCOC(=O)CC(NC(=O)CCCCc1ccc(C(=N)N)cc1)c1ccc(OCC)cc1 (stereo not drawn) [ethyl β-[[5-[4-(aminoiminomethyl)phenyl]-1-oxopentyl]amino]-4-ethoxybenzenepropanoate] | – | – | – | inhibition in vivo at 20 mg/kg ([2]; dose 20 mg/Kg): 0%; Duration ([2]; dose 20 mg/Kg): 0 h
CCOC(=O)CC(NC(=O)CCCCc1ccc(C(=N)N)cc1)c1ccc(-c2ccccc2)cc1 (stereo not drawn) [ethyl β-[[5-[4-(aminoiminomethyl)phenyl]-1-oxopentyl]amino][1,1'-biphenyl]-4-propanoate] | – | – | 0 | –
CCOC(=O)CC(Cc1ccccc1)NC(=O)CCCCc1ccc(C(=N)N)cc1 (stereo not drawn) [ethyl β-[[5-[4-(aminoiminomethyl)phenyl]-1-oxopentyl]amino]benzenebutanoate] | – | – | – | inhibition in vivo at 20 mg/kg ([2]; dose 20 mg/Kg): 30%; Duration ([2]; dose 20 mg/Kg): 1.5 h
CCOC(=O)CC(CCc1ccccc1)NC(=O)CCCCc1ccc(C(=N)N)cc1 (stereo not drawn) [ethyl β-[[5-[4-(aminoiminomethyl)phenyl]-1-oxopentyl]amino]benzenepentanoate] | – | – | 0 | –
N=C(N)c1ccc(CCCCC(=O)NC(CC(=O)O)c2ccccc2)cc1 (stereo not drawn) [β-[[5-4-(aminoiminomethyl)phenyl]-1-oxopentyl]amino]benzenepropanoic acid, acetate salt] | 5.3 | – | 34 | Duration ([2]; dose 30 mg/Kg): < 2 h
N=C(N)c1ccc(CCCCC(=O)NC(CCCCc2ccccc2)CC(=O)O)cc1 (stereo not drawn) [β-[[5-[4-(aminoiminomethyl)phenyl]-1-oxopentyl]amino]benzeneheptanoic acid] | 7.1 | – | – | –
N=C(N)c1ccc(CCCCC(=O)NC(CCc2ccccc2)CC(=O)O)cc1 (stereo not drawn) [β-[[5-[4-(aminoiminomethyl)phenyl]-1-oxopentyl]amino]benzenepentanoic acid] | 3 | – | – | –
βR-[[5-[4-(aminoiminomethyl)phenyl]-1-oxopentyl]amino]-1-naphthalenebutanoic acid | – | – | – | % Inhibition ([1]; test concentration 1 × 10^-5): 5%
